Measurements from patent publication US20240150396A1 (The Texas A&M University System, priority 2021, published 2024).
“And” between values parts separate entries of the source, which are not always exact repeats. Equal entries are not always repeated. Where two headings read alike, the source gives them in different places. Non-standard residues stand in square brackets, D forms with d. Residues, ends and D or L forms follow the SMILES beside them. *: point of attachment. hPhe = N[CH](CCc1ccccc1)C(=O)O; 4Pal = N[CH](Cc1ccncc1)C(=O)O; AMC = Cc1cc(=O)oc2cc(N*)ccc12; Cbz = O=C(OCc1ccccc1)*

Key:
cruzain [1] = biological target: T1, cruzain (Trypanosoma cruzi, UniProt P25779); assay: biochemical; details: pH 7.5; for kinact/KI: irreversible inactivation
T1 sequence (P25779 123-467 limits assumed): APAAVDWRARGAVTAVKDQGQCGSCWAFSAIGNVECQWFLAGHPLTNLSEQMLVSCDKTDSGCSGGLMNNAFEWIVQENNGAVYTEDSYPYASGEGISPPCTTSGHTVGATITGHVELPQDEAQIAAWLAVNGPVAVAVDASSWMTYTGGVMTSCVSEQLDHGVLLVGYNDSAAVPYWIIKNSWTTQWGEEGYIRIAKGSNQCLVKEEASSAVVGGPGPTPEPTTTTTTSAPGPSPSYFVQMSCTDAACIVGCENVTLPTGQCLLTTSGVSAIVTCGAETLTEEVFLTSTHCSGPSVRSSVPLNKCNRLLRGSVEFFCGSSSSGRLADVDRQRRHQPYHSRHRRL
Description: All enzyme assays were performed at 25° C. Initial rates of the peptidolytic reaction catalyzed by cruzain were measured by monitoring the fluorescence generated by cleavage of the dipeptide-AMC bond. Assays were conducted in 96-well plates (Greiner; flat-bottom, clear black plates) in a total volume of 250 μL, containing either 50 mM MES (pH 7.5), 50 mM TAPSO, 100 mM DEA, 1 mM CHAPS, 1 mM Na2EDTA, 5 mM DTT, and 10% DMSO (v/v) or 50 mM sodium acetate (pH 5.5), 50 mM MES, 100 mM TEA, 1 mM CHAPS, 1 mM Na2EDTA, 5 mM DTT, and 10% DMSO (v/v). Substrates were dissolved in 100% DMSO and were then diluted 10-fold such that when added to reaction mixtures, final DMSO concentration was 10% (v/v). […] Fluorescence was measured on either a SpectraMax M5 (Molecular Devices) or a Synergy HTX (BioTek, Winooski, VT) microplate reader (λex=360 nm, λem=460 nm). Initial rates were determined from continuous kinetic time courses and calculated from the earliest time points, typically at less than 10 min.
(2) Enzyme and compound were preincubated over extended periods of time, and then aliquots were removed and diluted 50-fold to 100-fold into reaction mixtures containing 10 μM Cbz-Phe-Arg-AMC, followed by the assessment of the resulting time courses.
Data for time-dependent inhibition were fitted by several methods.
Values of kobs versus [inhibitor] were then replotted and fitted to eq 4 for which k3 and k4 represent the respective rates of formation and dissolution of the EI* complex as depicted in FIG. 9.
In addition, time-course data were fitted globally by two methods. First, expressions for vs, vi, and kobs were substituted into eq 3 to generate eq 6, which was used to fit time-course data at all concentrations of inhibitors simultaneously. Second, time-course data were fitted using KinTek Explorer as either a single-binding step model with the two kinetic parameters k3/Ki and k4 or a two-step binding mechanism as shown in FIG. 9 from which rate constants k1-k4 are determined (Supporting Information).
Enzyme Assays. The preparation of cruzain and 3CL^pro were described in previous publications.^8, 34 The evaluation of inhibitors was modified from our lab protocol and described briefly as follows.^35 All enzyme assays were conducted in 96-well, clear bottom, black plates at 25° C., and fluorescence emanating from product formation was measured using either a SpectraMax M5 (Molecular Devices) or a Synergy HTX (Biotek) microplate reader, with excitation at λex=360 nm and emission at λem=460 nm. […] Reactions were started with addition of enzyme (typically, to a final concentration of 0.2 nM for cruzain or 40 nM for 3CL^pro), and the time courses were recorded for 0.5-1 h.
Kinetic Data Analysis. All time-course data were fitted to eq. 1, wherein P is the fluorescence generated by formation of AMC or liberated ACC, C is the background constant, vi and vs are respectively initial-state and steady-state reaction rates, t is time, and kobs is the observed rate of conversion of the initial inhibited rate to the final inhibited rate.^46
Overall inhibition constants (Ki* values) were obtained by fitting vs/v0 to eq. 4, wherein vs and v0 are steady-state reaction rates in the presence and absence of inhibitor respectively, [S] and [I] represent the fixed concentration of substrate and variable inhibitor, Km is the Michaelis constant of the substrate.

cruzain [2] = biological target: T1, cruzain; assay: Kinetic parameters of peptide substrates for cruzain; type: biochemical; details: for Km / kcat / kcat/Km: pH 7.5, 25° C., 10% DMSO; for kcat rel: relative to Cbz-Phe-Arg-AMC
Description: All enzyme assays were performed at 25° C. Initial rates of the peptidolytic reaction catalyzed by cruzain were measured by monitoring the fluorescence generated by cleavage of the dipeptide-AMC bond. Assays were conducted in 96-well plates (Greiner; flat-bottom, clear black plates) in a total volume of 250 μL, containing either 50 mM MES (pH 7.5), 50 mM TAPSO, 100 mM DEA, 1 mM CHAPS, 1 mM Na2EDTA, 5 mM DTT, and 10% DMSO (v/v) or 50 mM sodium acetate (pH 5.5), 50 mM MES, 100 mM TEA, 1 mM CHAPS, 1 mM Na2EDTA, 5 mM DTT, and 10% DMSO (v/v). Substrates were dissolved in 100% DMSO and were then diluted 10-fold such that when added to reaction mixtures, final DMSO concentration was 10% (v/v). Reactions were initiated with the addition of 1-10 μL of cruzain (final concentrations: 0.1-3.0 nM (preincubation studies)). Fluorescence was measured on either a SpectraMax M5 (Molecular Devices) or a Synergy HTX (BioTek, Winooski, VT) microplate reader (λex=360 nm, λem=460 nm). Initial rates were determined from continuous kinetic time courses and calculated from the earliest time points, typically at less than 10 min.
Initial velocity data for cruzain-catalyzed reactions of fluorogenic peptide substrates were determined by fitting to eq 1 using GraphPad Prism 6.0 or SigmaPlot 12.0. For eq 1, kcat is the turnover number, [E]t is the concentration of active sites of cruzain, and Ka is the Michaelis constant for the substrate A. Cruzain concentrations were determined by spectrophotometric analysis of purified sample solutions as described.^44

[3] = obtained >10 minutes following initiation of reaction by addition of enzyme, read-out: Ki* Cruzain
[4] = apparent initial inhibition constant, 25° C., read-out: Ki
[5] = apparent tight-binding inhibition constant, 25° C., read-out: Ki*

| Molecule | Ki (cruzain [1]; [4]) [µM] | Ki (cruzain [1]; [5]) [µM] | Km (cruzain [2]) [µM] | kcat (cruzain [2]) | kcat/Km (cruzain [2]) | kcat rel (cruzain [2]) | further results |
| --- | --- | --- | --- | --- | --- | --- | --- |
| O=C(N[C@@H](Cc1ccccc1)C(=O)N[C@H](/C=C/S(=O)(=O)c1ccccc1)Cc1ccccc1)OCc1ccccc1 [Compound 1] | – | – | – | – | – | – | Ki (cruzain [1]; [3]): 0.0036 µM |
| NC(=O)/C=C/[C@H](Cc1ccccc1)NC(=O)[C@H](Cc1ccccc1)NC(=O)OCc1ccccc1 [Compound 2, Benzyl ((S)-1-(((S,E)-5-Amino-5-oxo-1-phenylpent-3-en-2-yl)-amino)-1-oxo-3-phenylpropan-2-yl)carbamate] | 37 ± 2 | – | – | – | – | – | kinact/KI (cruzain [1]; 25° C.): 22 M⁻¹ s⁻¹ and 21.7 ± 0.8 M⁻¹ s⁻¹ |
| NC(=O)/C=C/[C@H](CCc1ccccc1)NC(=O)[C@H](Cc1ccccc1)NC(=O)OCc1ccccc1 [Compound 3, Benzyl ((S)-1-(((S,E)-6-Amino-6-oxo-1-phenylhex-4-en-3-yl)-amino)-1-oxo-3-phenylpropan-2-yl)carbamate] | 3 ± 1 | – | – | – | – | – | kinact/KI (cruzain [1]; 25° C.): 1700 ± 500 M⁻¹ s⁻¹ |
| CN1CCN(C(=O)N[C@@H](Cc2ccccc2)C(=O)N[C@H](/C=C/C(N)=O)CCc2ccccc2)CC1 [Compound 4, N—((S)-1-(((S,E)-6-Amino-6-oxo-1-phenylhex-4-en-3-yl)amino)-1-oxo-3-phenylpropan-2-yl)-4-methylpiperazine-1-carboxamide] | 3.4 ± 0.4 | – | – | – | – | – | kinact/KI (cruzain [1]; 25° C.): 1900 ± 200 M⁻¹ s⁻¹ |
| CN1CCN(C(=O)N[C@@H](Cc2ccccc2)C(=O)N[C@H](/C=C/c2ccccn2)CCc2ccccc2)CC1 [Compound 14, 4-Methyl-N—((S)-1-oxo-3-phenyl-1-(((S,E)-5-phenyl-1-(pyridin-2-yl)pent-1-en-3-yl)amino)propan-2-yl)piperazine-1-carboxamide] | – | 3.4 | – | – | – | – | – |
| CC(C)C[C@H](NC(=O)OCc1ccccc1)C(=O)N[C@H](/C=C/c1ccccn1)CCc1ccccc1 [Compound 18, Benzyl ((S)-4-Methyl-1-oxo-1-(((S,E)-5-phenyl-1-(pyridin-2-yl)-pent-1-en-3-yl)amino)pentan-2-yl)carbamate] | 7.8 ± 0.6 | 1.42 | – | – | – | – | – |
| C[C@@H](/C=C/c1ccccn1)NC(=O)[C@H](Cc1ccccc1)NC(=O)OCc1ccccc1 [Compound 19, Benzyl ((S)-1-Oxo-3-phenyl-1-(((S,E)-4-(pyridin-2-yl)but-3-en-2-yl)amino)propan-2-yl)carbamate] | – | 4.8 ± 0.2 | – | – | – | – | – |
| O=C(N[C@@H](Cc1ccccc1)C(=O)N[C@H](/C=C/c1ccncc1)Cc1ccccc1)OCc1ccccc1 [Compound 21, Benzyl ((S)-1-Oxo-3-phenyl-1-(((S,E)-1-phenyl-4-(pyridin-4-yl)-but-3-en-2-yl)amino)propan-2-yl)carbamate] | – | 5.5 ± 0.2 | – | – | – | – | – |
| C[n+]1ccc(/C=C/[C@H](Cc2ccccc2)NC(=O)[C@H](Cc2ccccc2)NC(=O)OCc2ccccc2)cc1 [Compound 22, 4-((S,E)-3-((S)-2-(((Benzyloxy)carbonyl)amino)-3-phenylpropanamido)-4-phenylbut-1-en-1-yl)-1-methylpyridin-1-ium Iodide] | 92 ± 5 | 4 ± 0.1 | – | – | – | – | – |
| O=C(N[C@@H](Cc1ccccc1)C(=O)N[C@H](/C=C/c1ccncn1)Cc1ccccc1)OCc1ccccc1 [Compound 23, Benzyl ((S)-1-Oxo-3-phenyl-1-(((S,E)-1-phenyl-4-(pyrimidin-4-yl)-but-3-en-2-yl)amino)propan-2-yl)carbamate] | 10.8 ± 1.4 | 1.14 ± 0.07 | – | – | – | – | – |
| O=C(N[C@@H](Cc1ccccc1)C(=O)N[C@H](CO)Cc1ccccc1O)OCc1ccccc1 [Compound 51] | – | – | – | – | – | – | Ki (cruzain [1]; [3]): > 10 µM |
| Cc1cc(=O)oc2cc(NC(=O)[C@H](CCc3ccccc3)NC(=O)[C@H](Cc3ccccc3)NC(=O)OCc3ccccc3)ccc12 [Compound S2, Cbz-Phe-hPhe-AMC] (Cbz-Phe-[hPhe]-{AMC}) | – | – | 0.26 ± 0.06 | 2.0 ± 0.2 s⁻¹ | 8e+06 M⁻¹ s⁻¹ and 8e+06 ± 2e+06 M⁻¹ s⁻¹ | 0.21 | – |
| Cc1cc(=O)oc2cc(NC(=O)C(CCc3ccccc3)NC(=O)C(CC(C)C)NC(=O)OCc3ccccc3)ccc12 (stereo not drawn) [Compound S3, Cbz-Leu-hPhe-AMC] (Cbz-Leu-[hPhe]-{AMC}; configuration not given here) | – | – | 0.8 ± 0.2 | 3.0 ± 0.2 s⁻¹ | 4e+06 ± 1e+06 M⁻¹ s⁻¹ | 0.21 | – |
| Cc1cc(=O)oc2cc(NC(=O)[C@H](CCCN=C(N)N)NC(=O)[C@H](CC(C)C)NC(=O)OCc3ccccc3)ccc12 [Compound S4, Cbz-Leu-Arg-AMC] | – | – | 2.2 ± 0.3 | 8.4 ± 0.4 s⁻¹ | 3.8e+06 ± 700000 M⁻¹ s⁻¹ | 0.88 | – |
| Cc1cc(=O)oc2cc(NC(=O)C(Cc3ccncc3)NC(=O)C(Cc3ccccc3)NC(=O)OCc3ccccc3)ccc12 (stereo not drawn) [Compound S5, Cbz-Phe-(4-Pyr)Ala-AMC] (Cbz-Phe-[4Pal]-{AMC}; configuration not given here) | – | – | 3.7 | 7.5 ± 0.5 s⁻¹ | 2e+06 ± 400000 M⁻¹ s⁻¹ | 0.76 | – |
| Cc1cc(=O)oc2cc(NC(=O)C(CCc3ccccc3)NC(=O)C(Cc3ccccc3)NC(=O)N3CCN(C)CC3)ccc12 (stereo not drawn) [Compound S7, NMePip-Phe-hPhe-AMC] | – | – | 3.1 ± 0.3 | 4.0 ± 0.1 s⁻¹ | 1.3e+06 M⁻¹ s⁻¹ and 1.3e+06 ± 100000 M⁻¹ s⁻¹ | 0.42 | – |
| Cc1cc(=O)oc2cc(NC(=O)[C@H](CCc3ccccc3)NC(=O)[C@H](Cc3ccncc3)NC(=O)OCc3ccccc3)ccc12 [Compound S8, Cbz-(4-Pyr)Ala-hPhe-AMC] (Cbz-[4Pal]-[hPhe]-{AMC}) | – | – | 4.6 | 5.3 s⁻¹ and 5.3 ± 0.2 s⁻¹ | 1.1e+06 ± 100000 M⁻¹ s⁻¹ | 0.55 | – |
| Cc1cc(=O)oc2cc(NC(=O)[C@H](Cc3ccccc3)NC(=O)[C@H](Cc3ccccc3)NC(=O)OCc3ccccc3)ccc12 [Compound S9, Cbz-Phe-Phe-AMC] (Cbz-Phe-Phe-{AMC}) | – | – | 0.34 | 0.26 ± 0.01 s⁻¹ | 800000 ± 200000 M⁻¹ s⁻¹ | 0.03 | – |
| Cc1cc(=O)oc2cc(NC(=O)C(CCc3ccccc3)NC(=O)C(CCCN=C(N)N)NC(=O)OCc3ccccc3)ccc12 (stereo not drawn) [Compound S10, Cbz-Arg-hPhe-AMC] | – | – | 6.8 | 4.9 s⁻¹ and 4.9 ± 0.1 s⁻¹ | 700000 ± 40000 M⁻¹ s⁻¹ | 0.51 | – |
| N—((S)-1-(((2S,3S)-3-hydroxy-1,2,3,4-tetrahydronaphthalen-2-yl)amino)-1-oxo-3-phenylpropan-2-yl)-4-methylpiperazine-1-carboxamide and N—((S)-1-(((2R,3R)-3-hydroxy-1,2,3,4-tetrahydronaphthalen-2-yl)amino)-1-oxo-3-phenylpropan-2-yl)-4-methylpiperazine-1-carboxamide [Compound 50] | – | > 100 | – | – | – | – | Ki (cruzain [1]; [3]): > 100 µM |
